{"source": "patent US20110321190A1", "about": "“METHOD OF POSITIVE PLANT SELECTION USING SORBITOL DEHYDROGENASE” (Metabolix, Inc., priority 2009, published 2011)", "key": {"[1]": {"tested_on": "tobacco leaf pieces", "test": "Callus induction and shoot regeneration from tobacco leaves on different sugars as sole carbon source", "type": "cell-based", "conditions": "sole carbon source: sorbitol 16 g/L, fructose 15.8 g/L; 4 weeks in tissue culture", "experimental": "To test whether sorbitol dehydrogenase can be used as a positive selection marker in tobacco, pieces of tobacco leaves were tested on media containing different sugars as a sole carbon source.\nSterile grown tobacco leaves were cut into pieces of approximately 0.5-1 cm^2. Leaf pieces were transferred onto MS media containing minimal organics (MSP002 from Caisson Laboratories, North Logan, Utah, USA), 1 mg/L 6-BAP (6-benzylaminopurine) in 1N NaOH, 100 ug/L NAA (α-naphtahalene acetic acid), and the following carbon sources: no sugar; sorbitol, (16 g/L); fructose, (15.8 g/L); sucrose (30 g/L). Explants were maintained in tissue culture for 4 weeks with the following light cycle: 16 hrs in the light at 23° C.; 8 hrs in the dark at 20° C.; relative humidity approximately 45%."}, "[2]": {"tested_on": "Arabidopsis thaliana leaf and root explants", "test": "Calli growth of Arabidopsis thaliana leaf and root explants in the presence of different carbon sources", "type": "cell-based", "conditions": "sole carbon source as in Example 1; 4 weeks dark incubation at 25° C.", "experimental": "Growth of cultures of Arabidopsis thaliana, a model dicot species, were also examined to determine if they were able to grow in the presence of sorbitol as a sole carbon source. Leaf and root explants were excised from sterile seedlings of Arabidopsis and were plated on medium containing maltose, fructose, or sorbitol, or no carbon supplement as described in Example 1."}, "[3]": {"tested_on": "switchgrass (Panicum virgatum L. cv. 'Alamo') callus cultures", "test": "Growth of switchgrass callus cultures in the presence of different carbon sources", "type": "cell-based", "conditions": "wild-type callus; sole carbon source: maltose 83.3 mM, fructose 111 mM, sorbitol 41.2 mM; 4 weeks dark incubation at 28° C.", "description": "The in vitro response of various plants grown on medium supplemented with different sugar sources was investigated. For these purposes, switchgrass (Panicum virgatum L. cv. ‘Alamo’) was chosen as a representative monocot species. Highly embryogenic callus cultures of switchgrass were initiated from mature caryopses according to established procedures (Denchev, P. D. and B. V. Conger, Crop Sci., 34: 1623-1627 (1994)) and transferred to callus multiplication media [media consists of MS basal salts (product#MS002, Caisson Laboratories, North Logan, Utah, USA), 6-benzylaminopurine (BAP, […]), 2,4-dichlorophenoxyacetic acid (2,4-D, […]), and agar (8 g/L agar), pH 5.6]. The media was supplemented with carbon sources as indicated in the following concentrations: maltose (83.3 mM), fructose (111 mM), sorbitol (41.2 mM), or no carbon source. After 4 weeks of dark incubation at 28° C., the callus multiplication ability in the presence of various carbon supplements or no carbon supplement was visually examined."}, "[4]": {"tested_on": "tomato cells", "conditions": "examples of the cited Trulson patents; cited from earlier work"}, "[5]": {"tested_on": "switchgrass embryogenic callus cultures", "test": "Agrobacterium-mediated transformation of switchgrass with pMBXS323 and selection on sorbitol as sole carbon source", "type": "cell-based", "conditions": "medium with sorbitol as sole carbon source; 4-6 wks in the dark at 28° C.", "experimental": "Agrobacterium-mediated transformation of switchgrass was performed as previously described (Somleva et al., 2002; Somleva, 2006). Highly embryogenic callus cultures were co-cultured with Agrobacterium tumifaciens strain AGL1 (Lazo et al., 1991) harboring pMBXS323 (FIG. 2) for three days in the dark at 28° C. The Agrobacterium treated cultures were incubated on a medium without selection for three to five days and then were transferred to medium containing sorbitol as the sole carbon source. […] These portions were carefully separated from the main callus and transferred to fresh selection medium for further callus proliferation. Upon transfer to regeneration medium containing sorbitol as the sole carbon source, these calli sectors developed green pigmentation within 3-5 days and eventually formed green adventitious shoots and emblings (somatic embryo derived plantlets) (FIGS. 3a-b)."}}, "note": "Entries after “also recorded” stand apart in the source; their conditions may differ.", "data": [{"compound": "O=C(CO)[C@@H](O)[C@H](O)[C@H](O)CO", "note": "[fructose]", "values": [{"measurement": "callus generation / induction", "setting": "[1]", "result": "Callus induction"}, {"measurement": "shoot regeneration", "setting": "[1]", "result": "shoot regeneration"}, {"measurement": "callus growth of root and leaf cultures", "setting": "[2]", "result": "considerable callus growth"}, {"measurement": "callus multiplication ability (visually examined)", "setting": "[3]", "result": "able to proliferate normally and displayed considerable callus growth"}]}, {"compound": "OC[C@H]1O[C@@H](O[C@H]2[C@H](O)[C@@H](O)C(O)O[C@@H]2CO)[C@H](O)[C@@H](O)[C@H]1O", "note": "(stereo partly shown) [lactose]", "values": [{"measurement": "growth of tomato cells on the carbon source", "setting": "[4]", "result": "do not grow"}]}, {"compound": "OC[C@H]1O[C@H](O[C@H]2[C@H](O)[C@@H](O)[C@H](O)O[C@@H]2CO)[C@H](O)[C@@H](O)[C@@H]1O", "note": "[maltose]", "values": [{"measurement": "callus growth of root and leaf cultures", "setting": "[2]", "result": "considerable callus growth"}, {"measurement": "callus multiplication ability (visually examined)", "setting": "[3]", "result": "able to proliferate normally and displayed considerable callus growth"}]}, {"compound": "OC[C@@H](O)[C@@H](O)[C@H](O)[C@H](O)CO", "note": "[mannitol]", "values": [{"measurement": "growth of tomato cells on the carbon source", "setting": "[4]", "result": "do not grow"}]}, {"compound": "OCc1ccccc1O[C@@H]1O[C@H](CO)[C@@H](O)[C@H](O)[C@H]1O", "note": "[salicin]", "values": [{"measurement": "growth of tomato cells on the carbon source", "setting": "[4]", "result": "do not grow"}]}, {"compound": "OC[C@@H](O)[C@@H](O)[C@H](O)[C@@H](O)CO", "note": "[sorbitol]", "values": [{"measurement": "callus generation / induction", "setting": "[1]", "result": "Inhibited callus generation"}, {"measurement": "shoot regeneration", "setting": "[1]", "result": "inhibited shoot regeneration"}, {"measurement": "callus growth of root and leaf cultures", "setting": "[2]", "result": "little to no growth"}, {"measurement": "callus multiplication ability (visually examined)", "setting": "[3]", "result": "remained dormant with minimal or no incremental growth; also recorded: reduced growth"}, {"measurement": "growth of tomato cells on the carbon source", "setting": "[4]", "result": "do not grow"}]}, {"compound": "OC[C@H]1O[C@H](O[C@H]2O[C@H](CO)[C@@H](O)[C@H](O)[C@H]2O)[C@H](O)[C@@H](O)[C@@H]1O", "note": "[trehalose]", "values": [{"measurement": "growth of tomato cells on the carbon source", "setting": "[4]", "result": "do not grow"}]}, {"compound": "pMBXS323: pCAMBIA3300-derived plant transformation plasmid with CaMV35S promoter, hsp70 intron and sdh gene from Pseudomonas sp. KS-E1806", "values": [{"measurement": "calli clumps showing formation of new growth", "setting": "[5]", "result": "30-50%"}]}]}
